Assay results published in PubChem BioAssay (NCI).
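Five concentrations, 48 hours, 96-well plates. The concentration for 50% growth inhibition is given as GI50. The concentration for full growth arrest is given as TGI.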

Columns and labels:
Experiment in all cases: NCI anticancer screen, dose series, 48 h
786-0 renal = test system: 786-0 renal
ACHN renal = test system: ACHN renal
EKVX NSCLC = test system: EKVX NSCLC
HOP-62 NSCLC = test system: HOP-62 NSCLC
KM12 colon = test system: KM12 colon
MALME-3M melanoma = test system: MALME-3M melanoma
NCI-H23 lung = test system: NCI-H23 lung
SF-268 CNS = test system: SF-268 CNS
BT-549 breast = test system: BT-549 breast
NCI/ADR-RES ovarian = test system: NCI/ADR-RES ovarian

## CC(=O)O[C@H]1CC[C@@]2(C)C(=CC[C@@H]3C2CC[C@]2(C)Nc4nc5ccccc5cc4CC32)C1 (stereo not given in full)
786-0 renal
  TGI: 10.7 µM
ACHN renal
  TGI: 16.9 µM
EKVX NSCLC
  TGI: 18.8 µM
HOP-62 NSCLC
  TGI: 26.7 µM
KM12 colon
  TGI: 12.9 µM
MALME-3M melanoma
  TGI: 21.7 µM
NCI-H23 lung
  TGI: 26.6 µM
SF-268 CNS
  TGI: 14.9 µM

## C=CCc1cc(OC)c2c(c1)C(OC)CC(c1ccc(OC)c(OC)c1)O2 (stereo not given)
786-0 renal
  TGI: > 100 µM
ACHN renal
  TGI: > 100 µM
EKVX NSCLC
  TGI: > 100 µM
HOP-62 NSCLC
  TGI: > 100 µM
KM12 colon
  TGI: > 100 µM
MALME-3M melanoma
  TGI: > 100 µM
SF-268 CNS
  TGI: > 100 µM

## CCOC(=O)c1cnc2c(C)cccc2c1Nc1ccc(C(C)=O)cc1
786-0 renal
  GI50: 16.9 µM
  TGI: 42.3 µM
ACHN renal
  GI50: 33.5 µM
  TGI: > 100 µM
BT-549 breast
  GI50: 16.1 µM
  TGI: 59.3 µM
HOP-62 NSCLC
  GI50: 39.7 µM
  TGI: > 100 µM
KM12 colon
  GI50: 51.2 µM
  TGI: > 100 µM
MALME-3M melanoma
  GI50: 28.7 µM
  TGI: > 100 µM
NCI-H23 lung
  GI50: 28.5 µM
  TGI: > 100 µM
NCI/ADR-RES ovarian
  GI50: 16.5 µM
  TGI: 72.5 µM
SF-268 CNS
  GI50: 18.3 µM
  TGI: 64.2 µM

## O=C1NC(=NCCCc2ccccc2)S/C1=C\c1ccc2ncccc2c1
786-0 renal
  GI50: 5.47 µM
  TGI: 13 µM
ACHN renal
  GI50: 5.08 µM
  TGI: 15.6 µM
BT-549 breast
  GI50: 4.58 µM
  TGI: 10.4 µM
HOP-62 NSCLC
  GI50: 5.79 µM
  TGI: 13.8 µM
KM12 colon
  GI50: 8.84 µM
  TGI: > 25 µM
MALME-3M melanoma
  GI50: 7.43 µM
  TGI: 19.3 µM
NCI-H23 lung
  GI50: 6.06 µM
  TGI: 15.8 µM
NCI/ADR-RES ovarian
  GI50: 6.5 µM
  TGI: 17.1 µM
SF-268 CNS
  GI50: 5.39 µM
  TGI: 12.5 µM

## CN(CCCNC(=O)CCOCCOCCOCCNC(=O)Cc1ccc2ccc3cccc4ccc1c2c34)CCCNc1cc(-c2ccc3ccccc3c2)nc2ccccc12
786-0 renal
  GI50: 0.615 µM
  TGI: 1.11 µM
ACHN renal
  GI50: 0.823 µM
  TGI: 2.2 µM
BT-549 breast
  GI50: 2.01 µM
  TGI: 4.68 µM
EKVX NSCLC
  GI50: 0.48 µM
  TGI: 0.959 µM
HOP-62 NSCLC
  GI50: 0.593 µM
  TGI: 1.12 µM
KM12 colon
  GI50: 0.47 µM
  TGI: 1.04 µM
NCI-H23 lung
  GI50: 0.767 µM
  TGI: 2.1 µM
NCI/ADR-RES ovarian
  GI50: 4.22 µM
  TGI: 10.6 µM
SF-268 CNS
  GI50: 0.54 µM
  TGI: 1.14 µM

## CCCCCCCCCCCC[n+]1ccc2ccccc2c1
786-0 renal
  GI50: 1.49 µM
  TGI: 2.93 µM
ACHN renal
  GI50: 1.89 µM
  TGI: 7.56 µM
BT-549 breast
  GI50: 0.907 µM
  TGI: 2.49 µM
EKVX NSCLC
  GI50: 0.4 µM
  TGI: 1.77 µM
HOP-62 NSCLC
  GI50: 1.48 µM
  TGI: 3.01 µM
KM12 colon
  GI50: 0.397 µM
  TGI: 1.51 µM
NCI-H23 lung
  GI50: 0.646 µM
  TGI: 3.09 µM
NCI/ADR-RES ovarian
  GI50: 9.37 µM
  TGI: 35.5 µM
SF-268 CNS
  GI50: 1.22 µM
  TGI: 2.57 µM

## Cn1nc(-c2ccccc2)c2c(/C=C/c3ccccc3)onc2c1=O
786-0 renal
  TGI: > 100 µM
ACHN renal
  TGI: > 100 µM
EKVX NSCLC
  TGI: > 100 µM
HOP-62 NSCLC
  TGI: > 100 µM
KM12 colon
  TGI: > 100 µM
MALME-3M melanoma
  TGI: > 100 µM
NCI-H23 lung
  TGI: > 100 µM
SF-268 CNS
  TGI: > 100 µM

## CCc1nc(N)nc(N)c1-c1ccc(N2CCNCC2)cc1
786-0 renal
  TGI: > 100 µM
ACHN renal
  TGI: > 100 µM
BT-549 breast
  TGI: > 100 µM
EKVX NSCLC
  TGI: > 100 µM
HOP-62 NSCLC
  TGI: > 100 µM
KM12 colon
  TGI: > 100 µM
NCI-H23 lung
  TGI: > 97.3 µM
NCI/ADR-RES ovarian
  TGI: > 100 µM
SF-268 CNS
  TGI: > 100 µM

## O=C(COc1cccc(/C=C2\CSc3ccccc3C2=O)c1)Nc1nccs1
786-0 renal
  GI50: 3.7 µM
  TGI: 13 µM
ACHN renal
  GI50: 2.66 µM
  TGI: 7.96 µM
EKVX NSCLC
  GI50: 7.21 µM
  TGI: 20.5 µM
HOP-62 NSCLC
  GI50: 11 µM
  TGI: 23.2 µM
KM12 colon
  GI50: 1.53 µM
  TGI: 2.86 µM
MALME-3M melanoma
  GI50: 1.54 µM
  TGI: 3.11 µM
NCI-H23 lung
  GI50: 1.85 µM
  TGI: 8.79 µM
NCI/ADR-RES ovarian
  GI50: 3.2 µM
  TGI: 11 µM
SF-268 CNS
  GI50: 1.76 µM
  TGI: 3.35 µM

## CC1(c2ccc(Cl)cc2)C2C(=O)NC(=O)C1C(=O)NC2=O (stereo not given)
786-0 renal
  TGI: > 100 µM
ACHN renal
  TGI: > 100 µM
EKVX NSCLC
  TGI: > 100 µM
HOP-62 NSCLC
  TGI: > 100 µM
KM12 colon
  TGI: > 100 µM
MALME-3M melanoma
  TGI: > 100 µM
NCI-H23 lung
  TGI: > 100 µM
SF-268 CNS
  TGI: > 100 µM

## CN(c1ccccc1)c1c(Cl)c(=O)oc2c1ccc1occc12
786-0 renal
  TGI: > 100 µM
ACHN renal
  TGI: > 100 µM
EKVX NSCLC
  TGI: > 100 µM
MALME-3M melanoma
  TGI: > 100 µM
NCI-H23 lung
  TGI: > 100 µM

## CCOC(=O)C1(C)CCCCC(=O)N1 (stereo not given)
786-0 renal
  TGI: > 100 µM
ACHN renal
  TGI: > 100 µM
EKVX NSCLC
  TGI: > 100 µM
HOP-62 NSCLC
  TGI: > 100 µM
MALME-3M melanoma
  TGI: > 100 µM
NCI-H23 lung
  TGI: > 100 µM
SF-268 CNS
  TGI: > 100 µM

## CC(=O)OC1COC(n2c(=S)n(-c3ccccc3)c(=O)c3ccccc32)C(OC(C)=O)C1OC(C)=O (stereo not given)
786-0 renal
  TGI: > 100 µM
ACHN renal
  TGI: > 100 µM
EKVX NSCLC
  TGI: > 100 µM
HOP-62 NSCLC
  TGI: > 100 µM
KM12 colon
  TGI: > 100 µM
MALME-3M melanoma
  TGI: > 100 µM
NCI-H23 lung
  TGI: > 100 µM
SF-268 CNS
  TGI: > 100 µM

## c1ccc2c(c1)cc1n2CC2CN=NC12 (stereo not given)
786-0 renal
  TGI: > 100 µM
ACHN renal
  TGI: > 100 µM
EKVX NSCLC
  TGI: > 100 µM
HOP-62 NSCLC
  TGI: > 100 µM
KM12 colon
  TGI: > 100 µM
MALME-3M melanoma
  TGI: > 100 µM
SF-268 CNS
  TGI: > 100 µM

## C=C1C(=O)OC2/C=C(/C)C(OC(C)=O)C/C=C(\C)C(OC(=O)C3(C)OC3C)C(O)C12 (stereo not given)
786-0 renal
  TGI: > 100 µM
ACHN renal
  TGI: > 100 µM
BT-549 breast
  TGI: > 100 µM
EKVX NSCLC
  TGI: > 100 µM
HOP-62 NSCLC
  TGI: > 100 µM
KM12 colon
  TGI: > 100 µM
NCI-H23 lung
  TGI: > 100 µM
NCI/ADR-RES ovarian
  TGI: > 100 µM
SF-268 CNS
  TGI: > 100 µM

## COC(=O)c1ccc(NC(=O)Oc2ccc(N(CCCl)CCCl)cc2)cc1
786-0 renal
  GI50: 4.95 µM
  TGI: 25.6 µM
ACHN renal
  GI50: 1.4 µM
  TGI: 16.4 µM
BT-549 breast
  GI50: 10.2 µM
  TGI: > 100 µM
HOP-62 NSCLC
  GI50: 3.99 µM
  TGI: 24.8 µM
KM12 colon
  GI50: 24.4 µM
  TGI: > 100 µM
MALME-3M melanoma
  GI50: 18.4 µM
  TGI: 71.1 µM
NCI-H23 lung
  GI50: 4.75 µM
  TGI: > 100 µM
NCI/ADR-RES ovarian
  GI50: 6.54 µM
  TGI: 53.8 µM
SF-268 CNS
  GI50: 1.94 µM
  TGI: 18.5 µM

## CC(=O)NNc1nc(C)c(C(=O)NNC(=O)C(=O)Nc2ccc(Cl)cc2Cl)s1
786-0 renal
  TGI: > 100 µM
ACHN renal
  TGI: 87.9 µM
EKVX NSCLC
  TGI: > 100 µM
HOP-62 NSCLC
  TGI: > 100 µM
KM12 colon
  TGI: > 100 µM
MALME-3M melanoma
  TGI: > 100 µM
NCI-H23 lung
  TGI: 96.4 µM
SF-268 CNS
  TGI: 78.6 µM

## N=c1c2c(=N)n3c(nc2nc2n1-c1ccccc1Sc1ccccc1-2)sc1cc(Cl)ccc13
786-0 renal
  GI50: 3.64 µM
  TGI: > 100 µM
ACHN renal
  GI50: 2.18 µM
  TGI: > 100 µM
BT-549 breast
  GI50: 3.97 µM
  TGI: > 100 µM
EKVX NSCLC
  GI50: 1.24 µM
  TGI: 7.46 µM
HOP-62 NSCLC
  GI50: 5.87 µM
  TGI: 24.1 µM
KM12 colon
  GI50: 2.34 µM
  TGI: 12.6 µM
NCI-H23 lung
  GI50: 1.15 µM
  TGI: 7.02 µM
NCI/ADR-RES ovarian
  GI50: 1.84 µM
  TGI: 44.6 µM
SF-268 CNS
  GI50: 3.42 µM
  TGI: > 100 µM
